Measured values: ChEMBL document CHEMBL1130444, “Inhibitory effects of pentamidine analogues on spermine stimulated ligand binding to the NMDA receptor complex” (Bioorg Med Chem Lett, 1997)
“And” between values parts separate entries of the source, which are not always exact repeats. Equal values may be shown once.

biological target: T1, Glutamate NMDA receptor (Rattus norvegicus) (UniProt P35439+Q00959+Q00960+Q00961+Q62645+Q8VHN2+Q9R1M7); test: Effect of spermine on the inhibition of [3H]MK-801 binding to the NMDA receptor at 100 TRIS acetate, pH 7; format: protein-complex assay

Increase in IC50	SMILES
1.72 and 2.87	COc1cc(C(=N)N)ccc1OC/C=C\COc1ccc(C(=N)N)cc1OC
4.24 and 3.79	COc1cc(C2=NCCN2)ccc1OC/C=C/COc1ccc(C2=NCCN2)cc1OC
8.1	N=C(N)c1ccc(OC[C@@H](O)[C@H](O)COc2ccc(C(=N)N)cc2)cc1
2.87 and 4.15	COc1cc(C(=N)N)ccc1OC/C=C/COc1ccc(C(=N)N)cc1OC

biological target: T1, Glutamate NMDA receptor (Rattus norvegicus); test: Effect of spermine on inhibition of [3H]MK-801 binding to NMDA receptor at 100 TRIS acetate, pH 7; format: protein-complex assay

Increase in IC50	SMILES
4.88	C(=C\COc1ccc(C2=NCCN2)cc1)/COc1ccc(C2=NCCN2)cc1

biological target: T1, Glutamate NMDA receptor (Rattus norvegicus); test: Effect of spermine on the inhibition of [3H]MK-801 binding to the NMDA receptor TRIS acetate, pH 7; format: protein-complex assay

Increase in IC50	SMILES
29.1 and 38.2	N=C(N)c1ccc(OC/C=C\COc2ccc(C(=N)N)cc2)cc1
21.7 and 27.8	N=C(N)c1ccc(OC/C=C/COc2ccc(C(=N)N)cc2)cc1
12.7 and 13.8	COc1cc(C2=NCCN2)ccc1OC/C=C/COc1ccc(C2=NCCN2)cc1OC
28.4 and 22.4	N=C(N)c1ccc(OC[C@@H](O)[C@H](O)COc2ccc(C(=N)N)cc2)cc1
14.3 and 12.2	COc1cc(C(=N)N)ccc1OC/C=C/COc1ccc(C(=N)N)cc1OC

The remaining lines, values behind:

SMILES	Increase in IC50
COc1cc(C(=N)N)ccc1OC/C=C\COc1ccc(C(=N)N)cc1OC	4.7 and 4.5
N=C(N)c1ccc(OCCCCCOc2ccc(C(=N)N)cc2)cc1 [PENTAMIDINE]	30.7 and 21.4
COc1cc(C2=NCCN2)ccc1OC/C=C\COc1ccc(C2=NCCN2)cc1OC	7.8 and 8.6
N=C(N)c1ccc(OCCCCOc2ccc(C(=N)N)cc2)cc1	28.8 and 35
C(=C\COc1ccc(C2=NCCN2)cc1)/COc1ccc(C2=NCCN2)cc1	15.3 and 12.7
C(=C/COc1ccc(C2=NCCN2)cc1)/COc1ccc(C2=NCCN2)cc1	9.9 and 12.1

biological target: T1, Glutamate NMDA receptor (Rattus norvegicus); test: Effect of spermine on the inhibition of [3H]-MK-801 binding to the NMDA receptor TRIS acetate, pH 7; format: protein-complex assay

Increase in IC50	SMILES
11.9	N=C(N)c1ccc(OC/C=C\COc2ccc(C(=N)N)cc2)cc1
9.5	N=C(N)c1ccc(OC/C=C/COc2ccc(C(=N)N)cc2)cc1
9.3	N=C(N)c1ccc(OC[C@@H](O)[C@H](O)COc2ccc(C(=N)N)cc2)cc1

Further lines, the compound ahead of its results:

SMILES	Increase in IC50
N=C(N)c1ccc(OCCCCCOc2ccc(C(=N)N)cc2)cc1 [PENTAMIDINE]	9.5
COc1cc(C2=NCCN2)ccc1OC/C=C\COc1ccc(C2=NCCN2)cc1OC	4.62 and 3.43
N=C(N)c1ccc(OCCCCOc2ccc(C(=N)N)cc2)cc1	10.2
C(=C\COc1ccc(C2=NCCN2)cc1)/COc1ccc(C2=NCCN2)cc1	4.14
C(=C/COc1ccc(C2=NCCN2)cc1)/COc1ccc(C2=NCCN2)cc1	5.48

biological target: Glutamate NMDA receptor; test: Inhibition of [3H]MK-801 binding to the NMDA receptor of rat hippocampal membranes, measured in buffer containing 20 mM TRIS acetate, pH 7; format: cell membranes, Membrane

IC50	SMILES
1.8 µM and 1.48 µM	N=C(N)c1ccc(OC/C=C\COc2ccc(C(=N)N)cc2)cc1
2.48 µM and 1.94 µM	N=C(N)c1ccc(OC/C=C/COc2ccc(C(=N)N)cc2)cc1
35 µM and 33 µM	COc1cc(C2=NCCN2)ccc1OC/C=C/COc1ccc(C2=NCCN2)cc1OC
24.8 µM and 22.6 µM	N=C(N)c1ccc(OC[C@@H](O)[C@H](O)COc2ccc(C(=N)N)cc2)cc1
12 µM and 12.6 µM	COc1cc(C(=N)N)ccc1OC/C=C/COc1ccc(C(=N)N)cc1OC

Second part, the compound before the results:

SMILES	IC50
COc1cc(C(=N)N)ccc1OC/C=C\COc1ccc(C(=N)N)cc1OC	50 µM and 62 µM
N=C(N)c1ccc(OCCCCCOc2ccc(C(=N)N)cc2)cc1 [PENTAMIDINE]	1.31 µM and 1.74 µM
COc1cc(C2=NCCN2)ccc1OC/C=C\COc1ccc(C2=NCCN2)cc1OC	26.5 µM and 23.3 µM
N=C(N)c1ccc(OCCCCOc2ccc(C(=N)N)cc2)cc1	2.64 µM and 3.01 µM
C(=C\COc1ccc(C2=NCCN2)cc1)/COc1ccc(C2=NCCN2)cc1	13.1 µM and 13.8 µM
C(=C/COc1ccc(C2=NCCN2)cc1)/COc1ccc(C2=NCCN2)cc1	18.8 µM and 15.9 µM

biological target: Glutamate NMDA receptor; test: Inhibition of [3H]MK-801 binding to the NMDA receptor of rat hippocampal membranes, measured in buffer containing 50 mM TRIS acetate, pH 7; format: cell membranes, Membrane

IC50	SMILES
4.26 µM	N=C(N)c1ccc(OC/C=C\COc2ccc(C(=N)N)cc2)cc1
3.81 µM	N=C(N)c1ccc(OC/C=C/COc2ccc(C(=N)N)cc2)cc1
63 µM	COc1cc(C2=NCCN2)ccc1OC/C=C/COc1ccc(C2=NCCN2)cc1OC
66 µM	N=C(N)c1ccc(OC[C@@H](O)[C@H](O)COc2ccc(C(=N)N)cc2)cc1
31 µM and 26.4 µM	COc1cc(C(=N)N)ccc1OC/C=C/COc1ccc(C(=N)N)cc1OC

Second part, the compound before the results:

SMILES	IC50
COc1cc(C(=N)N)ccc1OC/C=C\COc1ccc(C(=N)N)cc1OC	95 µM
N=C(N)c1ccc(OCCCCCOc2ccc(C(=N)N)cc2)cc1 [PENTAMIDINE]	3.06 µM
COc1cc(C2=NCCN2)ccc1OC/C=C\COc1ccc(C2=NCCN2)cc1OC	32.6 µM and 49 µM
N=C(N)c1ccc(OCCCCOc2ccc(C(=N)N)cc2)cc1	5.18 µM
C(=C\COc1ccc(C2=NCCN2)cc1)/COc1ccc(C2=NCCN2)cc1	38 µM and 37 µM
C(=C/COc1ccc(C2=NCCN2)cc1)/COc1ccc(C2=NCCN2)cc1	26.7 µM

biological target: Glutamate NMDA receptor; test: Inhibition of [3H]MK-801 binding to NMDA receptor in 50 mM TRIS acetate pH 7; format: protein-complex assay, Rattus norvegicus

IC50 [µM]	SMILES
73	COc1cc(C(=N)N)ccc1OC/C=C\COc1ccc(C(=N)N)cc1OC
83	COc1cc(C2=NCCN2)ccc1OC/C=C/COc1ccc(C2=NCCN2)cc1OC

biological target: T1, Glutamate NMDA receptor (Rattus norvegicus); test: Hill coefficient for binding to NMDA receptor in TRIS acetate pH 7; format: protein-complex assay

nH	SMILES
1.13	N=C(N)c1ccc(OC/C=C\COc2ccc(C(=N)N)cc2)cc1
0.71	N=C(N)c1ccc(OC/C=C/COc2ccc(C(=N)N)cc2)cc1
1.09 and 1.16	COc1cc(C2=NCCN2)ccc1OC/C=C/COc1ccc(C2=NCCN2)cc1OC
1.23 and 1.08	N=C(N)c1ccc(OC[C@@H](O)[C@H](O)COc2ccc(C(=N)N)cc2)cc1
1.28 and 1.21	COc1cc(C(=N)N)ccc1OC/C=C/COc1ccc(C(=N)N)cc1OC

More lines, now with the values behind:

SMILES	nH
COc1cc(C(=N)N)ccc1OC/C=C\COc1ccc(C(=N)N)cc1OC	2.14 and 1
N=C(N)c1ccc(OCCCCCOc2ccc(C(=N)N)cc2)cc1 [PENTAMIDINE]	0.93
COc1cc(C2=NCCN2)ccc1OC/C=C\COc1ccc(C2=NCCN2)cc1OC	1.33 and 1.15
N=C(N)c1ccc(OCCCCOc2ccc(C(=N)N)cc2)cc1	0.99
C(=C\COc1ccc(C2=NCCN2)cc1)/COc1ccc(C2=NCCN2)cc1	0.98 and 0.81
C(=C/COc1ccc(C2=NCCN2)cc1)/COc1ccc(C2=NCCN2)cc1	0.99

biological target: T1, Glutamate NMDA receptor (Rattus norvegicus); test: Hill coefficient for binding to NMDA receptor; format: protein-complex assay

nH	SMILES
1.39 and 1.38	N=C(N)c1ccc(OC/C=C\COc2ccc(C(=N)N)cc2)cc1
0.98 and 0.88	N=C(N)c1ccc(OC/C=C/COc2ccc(C(=N)N)cc2)cc1
1.04 and 0.96	COc1cc(C2=NCCN2)ccc1OC/C=C/COc1ccc(C2=NCCN2)cc1OC
1.04 and 1.09	N=C(N)c1ccc(OC[C@@H](O)[C@H](O)COc2ccc(C(=N)N)cc2)cc1
1.19	COc1cc(C(=N)N)ccc1OC/C=C/COc1ccc(C(=N)N)cc1OC

Continued, compound first:

SMILES	nH
COc1cc(C(=N)N)ccc1OC/C=C\COc1ccc(C(=N)N)cc1OC	1.21 and 1.46
N=C(N)c1ccc(OCCCCCOc2ccc(C(=N)N)cc2)cc1 [PENTAMIDINE]	1.17 and 1.15
COc1cc(C2=NCCN2)ccc1OC/C=C\COc1ccc(C2=NCCN2)cc1OC	1.13 and 1.29
N=C(N)c1ccc(OCCCCOc2ccc(C(=N)N)cc2)cc1	1.11 and 1.36
C(=C\COc1ccc(C2=NCCN2)cc1)/COc1ccc(C2=NCCN2)cc1	0.95 and 0.87
C(=C/COc1ccc(C2=NCCN2)cc1)/COc1ccc(C2=NCCN2)cc1	1.21
